{"source": "paper PMC10795032", "about": "(ACS Omega, 2024)", "format_in_all_cases": "cell-based, human", "key": {"[1]": {"test_system": "cleaved caspase-3", "experiment": "Western blot, cleaved caspase-3", "conditions": "U87-MG, 5 μM, 24 h"}, "[2]": {"test_system": "p62/SQSTM1", "experiment": "Western blot, autophagic flux marker p62/SQSTM1", "conditions": "U87-MG, 5 μM, 24 h"}, "[3]": {"test_system": "U87-MG cells", "conditions": "5 μM with 20 μM CQ, 24 h, CCK-8"}, "[4]": {"test_system": "LC3", "experiment": "Western blot, LC3-I to LC3-II conversion", "conditions": "U87-MG, 24 h"}, "[5]": {"test_system": "p-mTOR", "experiment": "Western blot, phosphorylation of mTOR", "conditions": "U87-MG, 5 μM, 24 h"}, "[6]": {"test_system": "U87-MG cells", "experiment": "Annexin V-FITC/PI flow cytometry apoptosis assay", "conditions": "5 μM, 24 h"}, "[7]": {"test_system": "pAKT", "experiment": "Western blot, phosphorylation of AKT", "conditions": "U87-MG, 5 μM, 24 h"}}}
{"smiles": "COc1cc2ncnc(Nc3ccc(F)c(Cl)c3)c2cc1OCCCN1CCOCC1", "note": "[Gefitinib]", "values": [{"measurement": "cleaved caspase-3 expression", "setting": "[1]", "value": "cleaved caspase-3 expression can be seen"}, {"measurement": "expression of p62", "setting": "[2]", "value": "partially downregulate"}, {"measurement": "increase in cell death along with CQ compared with treated alone", "setting": "[3]", "value": 2.09, "unit": "%"}, {"measurement": "conversion of LC3-II on co-incubation with CQ", "setting": "[4]; 5 μM with 20 μM CQ", "value": "significantly increases"}, {"measurement": "conversion of LC3-I to LC3-II", "setting": "[4]; 5 μM", "value": "able to induce autophagy"}, {"measurement": "phosphorylation of mTOR", "setting": "[5]", "value": "potent in inhibiting"}, {"measurement": "apoptosis rate (Annexin-V-positive cells)", "setting": "[6]", "value": 44.16, "unit": "%"}, {"measurement": "phosphorylation of AKT", "setting": "[7]", "value": "potent in inhibiting"}]}
